# Data: patent US5134151A, “2-picolylamine derivatives” (J. Uriach & Cia, priority 1989, dated 1992)
# Tests used:
# [1] = tested on: hypotension induced by PAF; test: Inhibition of the Hypotensive Effect Induced by PAF in Normotense Rats; assay type: in vivo, Male Sprage Dawley rats; details: Rattus norvegicus, iv, anesthetized, compound i.v. 3 min before PAF 0.5 mcg/Kg i.v., average arterial pressure, read-out: CI50 (inhibition of PAF-induced hypotension)
# Description: Male Sprage Dawley rats, of 180-220 g of weight, anesthetized with sodium pentobarbital (50 mg/Kg, i.p. 1 mL/100 g) have been used. In order to measure the average arterial pressure, a polyethylene catheter is introduced into the carotid artery. The arterial pressure is recorded with the help of a transducer connected with a R611 Beckman polygraph. The tested compounds are administered through the femoral vein 3 min before the injection of PAF (0.5 mcg/Kg, i.v.).
# [2] = tested on: platelet aggregation induced by PAF; test: Inhibition of Platelet Aggregation Induced by PAF (Born nephelometric technique, rabbit platelet rich plasma); assay type: cell-based, male New Zealand albino rabbits; details: PAF (C18) 16 nM final
# Description: The blood is obtained by cardiac puncture of male New Zealand albino rabbits (between 2 and 2.5 Kg of weight) and coagulation is prevented by adding 1 part of 3.16% sodium citrate dihydrate in 9 parts of blood. The platelet rich plasma (PRP) is prepared by blood centrifugation at 250×g for 10 min. at 4° C. and it is diluted with platelet poor plasma (PPP) by additional centrifugation at 3000×g for 10 min. The amount of platelets is adjusted to 3×10^-5 /mm^3. the platelet aggregation induced by PAF (C18; prepared in our laboratory) (16 nM, final) is determined by the Born nephelometric technique (J. Physiol., 1962, 162, 67) using a aggregometer Chrono-log 500. The activities of the inhibitors are expressed as IC50, that is to say the concentration of the drug needed to inhibit the platelet aggregation by 50%.
# [3] = Oryctolagus cuniculus, Platelet
"IC50 [2, 3] [nM]",IC50 [2] [nM],Compound,ED50 [1] [mg/kg]
19,,"CCCCCCCCCCCCCCCCCCOCCOCCOC(=O)N(Cc1cccc[n+]1CC)C(C)=O.[I-] [Compound 3, 2-(N-Acetyl-N-((2-(2-octadecyloxyethoxy)ethoxy)carbonyl)aminomethyl)-1-ethylpyridinium iodide]",0.022
1500,,"CC[n+]1ccccc1CN(C(C)=O)C(=O)OCCOCCOC(=O)C(C)(C)C.[I-] [Compound 9, 2-(N-Acetyl-N-((2-(2-pivaloyloxyethoxy)ethoxy)carbonyl)aminomethyl)-1-ethylpyridinium iodide]",5
27,,"CCCCCCCCCCCCCCCCCNC(=O)OCCOCCOC(=O)N(Cc1cccc[n+]1CC)C(C)=O [Compound 12, 2-(N-Acetyl-N-((2-(2-heptadecylcarbamoyloxy)ethoxy)ethoxy)carbonyl)aminomethyl)-1-ethylpyridium chloride]",0.067
1600,,"CCCCCCCCCCCCCCCCCNC(=O)OCCOCCOC(=O)NCc1cccc[n+]1CC.[I-] [Compound 13, 2-(N-((2-(2-(Heptadecylcarbamoyloxy)ethoxy)ethoxy)carbonyl)aminomethyl)-1-ethylpyridinium iodide]",0.5
54,,"CCCCCCCCCCCCCCCCCNC(=O)OCCOCCOC(=O)N(Cc1cccc[n+]1C)C(C)=O.[I-] [Compound 14, 2-(N-Acetyl-N-((2-(2-(heptadecylcarbamoyloxy)ethoxy)ethoxy)carbonyl)aminomethyl)-1-methylpyridinium iodide]",0.13
12,,"CCCCCCCCCCCCCCCCCNC(=O)OCCOCCOC(=O)N(Cc1cccc[n+]1CC)C(=O)OCC.[I-] [Compound 16, 2-(N-Ethoxycarbonyl-N-((2-(2-(heptadecylcarbamoyloxy)ethoxy)ethoxy)carbonyl)aminomethyl)-1-ethylpyridinium iodide]",0.021
19,,"CCCCCCCCCCCCCCCNC(=O)OCCOCCOC(=O)N(Cc1cccc[n+]1CC)C(C)=O.[I-] [Compound 19, 2-(N-Acetyl-N-((2-(2-(pentadecylcarbamoyloxy)ethoxy)ethoxy)carbonyl)aminomethyl)-1-ethylpyridinium iodide]",0.041
220,,"CCCCCCCCCCCCCCCNC(=O)OCCOCCOC(=O)N(Cc1cccc[n+]1CCC)C(C)=O.[I-] [Compound 20, 2-(N-Acetyl-N-((2-(2-(pentadecylcarbamoyloxy)ethoxy)ethoxy)carbonyl)aminomethyl)-1-propylpyridinium iodide]",0.68
27,,"CCCCCCCCCCCCCCCNC(=O)OCCOCCOC(=O)N(Cc1cccc[n+]1CC)C(=O)OCC.[I-] [Compound 22, 2-(N-Ethoxycarbonyl-N-((2-(2-(pentadecylcarbamoyloxy)ethoxy)ethoxy)carbonyl)aminomethyl)-1-ethylpyridinium iodide]",0.032
51,,"CCCCCCCCCCCCCCCNC(=O)OCCOCCOC(=O)N(Cc1cccc[n+]1CC)C(=O)OCC(C)C.[Cl-] [Compound 25, 2-(N-Isobutyloxycarbonyl-N-((2-(2-(pentadecylcarbamoyloxy)ethoxy)ethoxy)carbonyl)aminomethyl)-1-ethylpyridinium chloride]",0.064
6.8,,"CCCCCCCCCCCCCCCNC(=O)OCCSCCOC(=O)N(Cc1cccc[n+]1CC)C(C)=O.[I-] [Compound 37, 2-(N-Acetyl-N-((2-(2-(pentadecylcarbamoyloxy)ethylthio)ethoxy)carbonyl)aminomethyl)-1-ethylpyridinium iodide]",0.044
1200,,"CC[n+]1ccccc1CN(C(C)=O)C(=O)OCCOCCOC(=O)NCCCc1ccccc1.[I-] [Compound 40, 2-(N-Acetyl-N-((2-(2-(3-phenylpropylcarbamoyloxy)ethoxy)ethoxy)carbonyl)aminomethyl)-1-ethylpyridinium iodide]",0.88
2000,,"CC[n+]1ccccc1CN(C(C)=O)C(=O)OCCOCCOC(=O)NCC1CCCCC1.[I-] [Compound 43, 2-(N-Acetyl-N-((2-(2-(cyclohexylmethylcarbamoyloxy)ethoxy)ethoxy)carbonyl)aminomethyl)-1-ethylpyridinium iodide]",0.5
12,,"CCCCCCCCCCCCCCCNC(=O)OCCOCCOCCOC(=O)N(Cc1cccc[n+]1CC)C(C)=O.[I-] [Compound 46, 2-(N-Acetyl-N-((2-(2-(2-(pentadecylcarbamoyloxy)ethoxy)ethoxy)ethoxy)carbonyl)aminomethyl)-1-ethylpyridinium iodide]",0.028
,4.4,"CCCCCCCCCCCCCCCCCNC(=O)OCCSCCOC(=O)N(Cc1cccc[n+]1CC)C(C)=O.[I-] [Compound 62, 2-(N-Acetyl-N-((2-(2-(heptadecylcarbamoyloxy)ethylthio)ethoxy)carbonyl)aminomethyl)-1-ethylpyridinium iodide]",0.013
,12,"CCCCCCCCCCCCCCCCCNC(=O)OCCSCCOC(=O)N(Cc1cccc[n+]1CC)C(C)=O.[Cl-] [Compound 63, 2-(N-Acetyl-N-((2-(2-(heptadecylcarbamoyloxy)ethylthio)ethoxy)carbonyl)aminomethyl)-1-ethylpyridinium chloride]",0.018
4.4,,"CCCCCCCCCCCCCCCCOCCSCCOC(=O)N(Cc1cccc[n+]1CC)C(C)=O.[I-] [Compound 66, 2-(N-Acetyl-N-((2-(2-hexadecyloxyethylthio)ethoxy)carbonyl)aminomethyl)-1-ethylpyridinium iodide]",0.014
15,,"CCCCCCCCCCCCCCCCCCOCCSCCOC(=O)N(Cc1cccc[n+]1CC)C(C)=O [Compound 69, 2-(N-Acetyl-N-((2-(2-octadecyloxyethylthio)ethoxy)carbonyl)aminomethyl)-1-ethylpyridinium idodide]",0.016

Compound,"IC50 [2, 3] [nM]",IC50 [2] [nM],ED50 [1] [mg/kg]
"CCCCCCCCCCCCCCCNC(=O)OCCCCCOC(=O)N(Cc1cccc[n+]1CC)C(C)=O.[I-] [Compound 31, 2-(N-Acetyl-N-((5-(pentadecylcarbamoyloxy)pentoxy)carbonyl)aminomethyl)-1-ethylpyridinium iodide]",32,,0.057
